Results: patent EP0232089B1, “Quinone amides, their production and use” (Takeda Chemical Industries, Ltd., priority 1986, dated 1987)
Marks after values point to notes of the source that are not given here.

System: Bronchoconstriction in guinea pigs induced by PAF
Assay: Platelet activating factor (PAF)-induced bronchoconstriction in guinea pigs (method of Konzett-Rossler)
Format: in vivo
Details: 8 animals
Method: Platelet activating factor (PAF)-induced bronchoconstriction in guinea pigs
Bronchoconstriction in guinea pigs induced by PAF (1 µg/kg, intravenous injection) was measured by the method of Konzett-Rossler. The following procedure was the same as that in leukotriene D4(LTD4)-induced bronchoconstriction. Test drugs were orally administered as a 5% gum arabic solution one hour before administration of PAF. Table 2 Inhibitory action against bronchoconstriction in guinea pigs

[1] = dose 5 mg/kg orally as 5% gum arabic solution one hour before PAF (1 µg/kg, intravenous injection)

SMILES | % inhibition (dose 0.313 mg/kg orally as 5% gum arabic solution one hour before PAF (1 µg/kg, intravenous injection)) | % inhibition (dose 1.25 mg/kg orally as 5% gum arabic solution one hour before PAF (1 µg/kg, intravenous injection)) | % inhibition [1]
CC1=C(C)C(=O)C(C(CCCCCC(N)=O)c2ccccc2)=C(C)C1=O (centres unmarked) [Compound No. 1, 7-(3,5,6-trimethyl-1,4-benzoquinon-2-yl)-7-phenylheptanamide] | 49.7* % | 80.3** % | 100.0** %
CC1=C(C)C(=O)C(C(CCCCCC(=O)NC(Cc2ccccc2)C(=O)O)c2ccccc2)=C(C)C1=O (centres unmarked) [Compound No. 30] | – | – | 72.1* %
CC1=C(C)C(=O)C(C(CCCCCC(=O)N2CCN(CCc3ccccc3)CC2)c2ccccc2)=C(C)C1=O (racemic) [Compound No. 18, 7-(3,5,6-trimethyl-1 ,4-benzoquinon-2-yl)-7-phenylheptanoic acid 4-(2-phenylethyl)-piperazinamide] | – | – | 59.9* %
